Assay results: ChEMBL document CHEMBL1201862, “PubChem BioAssay data set” (2004)
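Growth conditions: 96-well plates. Treatment: test compound, 48 hours, 5 concentrations. Analysis: linear interpolation between bracketing concentrations; unreached endpoints set to highest concentration. At the GI50, growth is halved.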 The source made the active and inactive calls. Cut-off read from the data, not from the text of the source: active = GI50 up to about 1.1 µM and inactive = higher.

Tests used:
Assay in all cases: NCI anticancer screen, dose series, 48 h
SW-620 = tested on: SW-620
SNB-19 = tested on: SNB-19
UACC-257 = tested on: UACC-257
SK-MEL-28 = tested on: SK-MEL-28
TK-10 = tested on: TK-10
HL-60 = tested on: HL-60
786-0 = tested on: 786-0
PC-3 = tested on: PC-3
OVCAR-5 = tested on: OVCAR-5
SK-OV-3 = tested on: SK-OV-3
MDA-N = tested on: MDA-N
K562 = tested on: K562
EKVX = tested on: EKVX
LOX IMVI = tested on: LOX IMVI
RPMI-8226 = tested on: RPMI-8226
A498 = tested on: A498
HT-29 = tested on: HT-29
OVCAR-4 = tested on: OVCAR-4
UACC-62 = tested on: UACC-62
CCRF-CEM = tested on: CCRF-CEM
HCT-15 = tested on: HCT-15
HOP-92 = tested on: HOP-92
SK-MEL-2 = tested on: SK-MEL-2
M14 = tested on: M14
MDA-MB-435 = tested on: MDA-MB-435
DU-145 = tested on: DU-145
BT-549 = tested on: BT-549
KM12 = tested on: KM12
ACHN = tested on: ACHN
HOP-62 = tested on: HOP-62
NCI-H460 = tested on: NCI-H460
SF-539 = tested on: SF-539
Malme-3M = tested on: Malme-3M
OVCAR-8 = tested on: OVCAR-8
NCI-H522 = tested on: NCI-H522
SN12C = tested on: SN12C
MOLT-4 = tested on: MOLT-4
COLO 205 = tested on: COLO 205
IGROV-1 = tested on: IGROV-1
MDA-MB-231 = tested on: MDA-MB-231
U-251 = tested on: U-251
Hs-578T = tested on: Hs-578T
UO-31 = tested on: UO-31
A549 = tested on: A549
MCF7 = tested on: MCF7
NCI-H226 = tested on: NCI-H226
NCI/ADR-RES = tested on: NCI/ADR-RES
HCT-116 = tested on: HCT-116
NCI-H23 = tested on: NCI-H23
SF-295 = tested on: SF-295
CAKI-1 = tested on: CAKI-1
SF-268 = tested on: SF-268
RXF 393 = tested on: RXF 393
SR = tested on: SR
SK-MEL-5 = tested on: SK-MEL-5
HCC 2998 = tested on: HCC 2998
OVCAR-3 = tested on: OVCAR-3

Measured: GI50

C[C@]12CC/C(=N\O)C=C1CC[C@@H]1[C@@H]2CC[C@]2(C)C(=N/O)/C(=C/c3cccnc3)C[C@@H]12
5.9 µM: HCT-15
active: HL-60 0.338 µM | MOLT-4 0.546 µM
inactive: SW-620 31.8 µM | SNB-19 23.4 µM | UACC-257 17.9 µM | SK-MEL-28 16.9 µM | TK-10 15.1 µM | 786-0 28.4 µM | PC-3 6.95 µM | OVCAR-5 24.2 µM | SK-OV-3 39.1 µM | MDA-N 12.5 µM | K562 6.98 µM | EKVX 18.4 µM | LOX IMVI 4.76 µM | RPMI-8226 1.74 µM | A498 14.5 µM | HT-29 19 µM | OVCAR-4 18.1 µM | UACC-62 3.3 µM | CCRF-CEM 7.38 µM | HOP-92 12.8 µM | SK-MEL-2 19.8 µM | M14 16.5 µM | MDA-MB-435 15.9 µM | DU-145 21.8 µM | BT-549 12.6 µM | KM12 6.98 µM | ACHN 16.8 µM | HOP-62 18.7 µM | NCI-H460 3.46 µM | SF-539 25.2 µM | Malme-3M 17.8 µM | OVCAR-8 15.4 µM | NCI-H522 12.1 µM | SN12C 12.2 µM | COLO 205 17.2 µM | IGROV-1 30.4 µM | MDA-MB-231 17.7 µM | U-251 22.6 µM | Hs-578T 3.63 µM | UO-31 4.9 µM | A549 13.1 µM | MCF7 6.97 µM | NCI-H226 3.63 µM | NCI/ADR-RES 14.3 µM | HCT-116 17.5 µM | NCI-H23 32.6 µM | SF-295 6.95 µM

CC(C)N1[C@@H]2CCCC[C@H]2N(C(C)C)P1(=O)C(=O)/C=C/c1ccccc1
active: Malme-3M 1 µM
inactive: CAKI-1 2.54 µM | SW-620 2.58 µM | SNB-19 5.52 µM | UACC-257 3.08 µM | SK-MEL-28 2.37 µM | SF-268 2.44 µM | RXF 393 1.69 µM | TK-10 3.51 µM | HL-60 1.65 µM | 786-0 1.81 µM | PC-3 4.18 µM | OVCAR-5 2.37 µM | MDA-N 1.83 µM | K562 2.52 µM | EKVX 3.54 µM | LOX IMVI 2.03 µM | RPMI-8226 2.49 µM | A498 2.75 µM | HT-29 2.79 µM | OVCAR-4 1.67 µM | UACC-62 2.57 µM | HOP-92 1.76 µM | SK-MEL-2 2.72 µM | M14 2.02 µM | SR 2.83 µM | MDA-MB-435 1.76 µM | DU-145 2.08 µM | BT-549 2.91 µM | SK-MEL-5 1.5 µM | KM12 3.23 µM | ACHN 2.69 µM | HOP-62 3.88 µM | NCI-H460 2.97 µM | SF-539 1.82 µM | OVCAR-8 1.73 µM | HCC 2998 2.18 µM | NCI-H522 1.53 µM | OVCAR-3 2.38 µM | SN12C 1.99 µM | MOLT-4 2.7 µM | COLO 205 1.91 µM | IGROV-1 1.98 µM | MDA-MB-231 2.98 µM | U-251 4.08 µM | Hs-578T 1.71 µM | UO-31 1.64 µM | A549 3.35 µM | MCF7 3.5 µM | NCI-H226 3.52 µM | NCI/ADR-RES 2.02 µM | HCT-116 1.96 µM | NCI-H23 2.16 µM | SF-295 10.6 µM
1.92 µM: HCT-15
